From patent US20250215460A1, “MICROBIAL […] THE CONVERSION OF CARBOHYDRATES” (Ohio State Innovation Foundation, priority 2022, published 2025)

Key:
[1] = test system: C. tyrobutyricum Δcat1::adhE2; assay: Batch fermentation of glucose in serum bottles with methyl viologen added; type: cell-based, Clostridium tyrobutyricum
Source text: Artificial electron carriers such as methyl viologen, benzyl viologen and neutral red have been used in solventogenic clostridia to increase butanol production through diverting electron flow towards NADH formation accompanied by decreased hydrogen production. An artificial electron carrier, such as methyl viologen (MV) and benzyl viologen (BV), was used to inhibit hydrogen production and increase NADH pool and butanol production by C. tyrobutyricum expressing adhE2. C. tyrobutyricum Δcat1::adhE2 was cultured in Clostridia Growth Medium (CGM) containing glucose as the carbon source in serum bottles at 37° C. The medium pH was buffered at ˜5.5 with CaCO3. At 24 h after initial seeding the bottles, methyl viologen was added at various concentrations (up to 1000 μM) to study its effects on cell growth and butanol production. […] The highest butanol yield and productivity were obtained at 500 μM MV. Similar results can also be achieved with other electron carriers such as benzyl viologen and neutral red.

[2] = test system: C. tyrobutyricum Δcat1::adhE2; assay: Batch fermentations of glucose and xylose in bioreactors at pH 6.0 with methyl viologen; type: cell-based, Clostridium tyrobutyricum
Experimental: Batch fermentations of glucose and xylose by C. tyrobutyricum Δcat1::adhE2 were studied in bioreactors at pH 6.0 in the presence of methyl viologen (MV) at various concentrations (0 μM, 200 μM, 500 μM, 1000 μM). For glucose fermentation, MV was added at 12 h after inoculation. […] The fermentation time course data are shown in FIGS. 11A-11H and the effects of MV on cell growth and fermentation kinetics are illustrated in FIG. 12. […] Similar trends were also observed with xylose as the substrate at 200 μM MV. […] The results also indicate that biomass hydrolysate sugars including glucose and xylose can be used simultaneously and converted to butanol by engineered C. tyrobutyricum expressing adhE2.

For `C[n+]1ccc(-c2cc[n+](C)cc2)cc1` [MV, methyl viologen], the “Effect on acetate and butanol production from glucose” value ([1]; MV up to 1000 μM added at 24 h, pH ~5.5, 37° C.) was “dramatically reduced acetate production and increased butanol production”, the “MV concentration at which lactate was also produced as a byproduct” value ([1]; glucose, pH ~5.5) was ≥ 200 µM and the “MV concentration giving the highest butanol yield and productivity” value ([1]; glucose, pH ~5.5) was 500 µM. The “Toxicity to cells, xylose compared to glucose” value ([2]; bioreactor, pH 6.0) was “more toxic to cells grown on xylose”, the “Effect on product formation with increasing MV concentration” value ([2]; glucose as substrate, MV 0-1000 μM added at 12 h, pH 6.0) was “butanol and lactate production increased while acetate and butyrate production decreased” and the “Effect on cell growth and fermentation” value ([2]; xylose as substrate, 500 μM and 1000 μM MV added at 24 h, pH 6.0) was “completely inhibited cell growth and stopped fermentation”. The “Effect on cell growth and fermentation (figure legend)” value ([2]; xylose fermentation, 500 mM and 1000 mM MV, addition delayed to 24 h) was “completely inhibited cell growth and fermentation”.
